Measurements published in patent US20250262139A1, “POLYPEPTIDES AND METHODS FOR IMPROVING SKIN CONDITIONS” (INTERK PEPTIDE THERAPEUTICS LIMITED, priority 2020, published 2025).
Where no end group is shown, it is not given here.

Key:
[1] = tested on: MM1418-C1 lightly pigmented melanoma cells; assay: melanin content after UVB, melanoma cells; format: cell-based; conditions: 10 μM for 24 hours prior to 2 kJ/m2 UVB; measured 24 hours later; relative to untreated UVB cells
Protocol: In brief, MM1418-C1 lightly pigmented melanoma cells or human primary melanocytes were grown in 24 well culture plates and treated with 10 μM
RSKAKNPLYRRRRRRRRR (“IK-3”) for 24 hours prior to being exposed to 2 kJ/m2 UVB radiation. Controls (not treated with RSKAKNPLYRRRRRRRRR) labelled “Con” and “UVB”, respectively, were exposed to either 0 or 2 KJ/m2 UVB radiation. Cell groups were returned to the incubator for 24 hours and then the levels of melanin and protein in the cells were measured spectrophotometrically. In each experiment triplicate samples were measured. Data shown in FIG. 19 indicate the average values+SEM (μg melanin/mg cell protein) exposed to 0 or 2 KJ/m2 UVB which had been pre-treated with 0 or 10 μM of RSKAKNPLYRRRRRRRRR 24 hours prior to being exposed to UVB radiation. The t-test (2-tailed) was used to determine statistical significance, *p<0.05, ***p<0.001.

Skh: hr1 hairless mice = assay: 8-OHdG (8oxodG) immunohistochemistry in UV-irradiated mouse skin; format: in vivo; conditions: topical immediately after 3 MED UVR; IK34720 20, 100 or 200 μg, Calcitriol 11.4 pmol/cm2; biopsy 3 h post-UVR; vs vehicle
Protocol: 8-hydroxy-2′-deoxyguanosine or 8-oxo-7,8-dihydro-2′-deoxyguanosine (8-OHdG/8-oxodG) is one of the predominant forms of free radical-induced in oxidative lesions with the concentrations of 8-OHdG within a cell being a measurement of oxidative stress. The role of the polypeptide IK34720 (SEQ ID NO: 3) in UV-induced oxidative stress was assessed using the following protocol.
Female Skh: hr1 hairless mice were exposed to solar simulated UV-irradiation (UVR) by exposure to one fluorescent UVB tube (Philips TL40W 12R/S, Eindhoven, The Netherlands) in combination with 6 UVA tubes (Hitachi 40W F40T 10/BL, Tokyo, Japan). The UVA and UVB irradiation was filtered through a 0.125 mm cellulose acetate sheet (Grafix Plastics, Cleveland, OH) as previously described (Dixon K M et al., Biochem Mol Biol, 2007, 103 (3-5): 451-6). […]
Biopsies were taken from UV-irradiated dorsal skin 3 h post-UVR and fixed in Histochoice fixative (Amresco, Solon OH) for 6 h. […] Sections were subjected to routine hematoxylin and eosin staining for visualization of sunburn cells at 40× magnification, and the number of sunburn cells per linear millimetre of skin section recorded.
Levels of 8-oxo-2′-deoxyguanosine (8oxodG) indicative of oxidative stress were detected by immunohistochemistry and image analysis (Dixon K M et al., Cancer Prev Res 2011, 4 (9): 1485-94) as set out below. […]

CREB-S133 = assay: CREB phosphorylation by western blot in keratinocytes after solar simulated UV; format: cell-based; conditions: 0.1 μM, 1 μM and 5 μM added immediately following ssUV irradiation
Protocol: The influence of the polypeptide IK34720 (SEQ ID NO: 3) on CREB phosphorylation was assessed using the following protocol.
Keratinocytes were harvested and cultured as previously described (Gupta et al., J Invest Dermatol, 2007, 127 (3): 707-215). Keratinocytes, (passages 1-5) from 3 independent donors were used in the experiments illustrated in FIG. 3.
Positive control treatment (denoted “D” in FIG. 3) was prepared by solubilizing Calcitriol (1,25-dihydroxyvitamin D3 (1,25 (OH)2D3)-Cayman Chemical, MI, USA) in 100% spectroscopic ethanol (Merck, Darmstadt, Germany) and the final concentration was determined by spectroscopy (NanoDrop 2000, Thermo Fisher Scientific, MA, USA). The polypeptide IK34720 (SEQ ID NO: 3) was solubilised in phosphate buffered saline (PBS) to a concentration of 1 mM at pH 7.2. A vehicle (denoted as “V” in FIG. 3) constituting 0.1% (v/v) spectroscopic ethanol and 0.1% (v/v) PBS was prepared for use as a negative control.
Cultured cells were irradiated by solar simulated UV-irradiation (ssUV) using an Oriel 1000W xenon-arc lamp (Stratford, CT, USA). Irradiation was administered at an energy level of 400 mJ/cm^2 for UVB and 3600 mJ/cm^2 for UVA (total 4000 mJ/cm^2), measured by an OL754 radiometer (Optronics Laboratories Inc., Orlando, FL). This dosage equates to approximately 4 min irradiation of the sun at 12 noon in October in Sydney, Australia. […]

RSKAKNPLYRRRRRRRRR (not fully specified (some residues)) [IK34720]
melanin content [1]: significantly decreased melanin content
8-OHdG formation in the skin (Skh: hr1 hairless mice): inhibits 8-OHdG formation
UV-induced phosphorylation of serine at position 133 of CREB (CREB-S133): inhibits UV-induced phosphorylation
